The test system of test [1] is H460 cells. Particulars: cited from earlier work.
Test [2] concerns H292 cells. Kind of test: MTT cell viability assay (cytotoxicity). In kind it is cell-based, human. The settings on record: Homo sapiens, NCI-H292, 24 h, read-out: IC50 ± SD H292. As to the method:
(§1) NSCLCs H292 and H460 were treated with various concentrations of derivatives of the RT right-half analog for 24 h. […] However, the IC50 values for DH_17, DH_20, DH_23, and DH_26 in H460 cells were greater than 100 μM. TM-(−)-18 was identified as a potent compound in a previous study. The structure of TM-(−)-18 was present in Figure 1A. […] To assess the selectivity of DH_28, DH_30, DH_31, and TM-(−)-18 in lung cancer cells, non-tumorigenic epithelial cell lines derived from human bronchial epithelial cells (BEAS-2B) were treated with DH_28, DH_30, DH_31, and TM-(−)-18 at various concentrations for 24 h.
(§2) MTT assay was conducted to ascertain cell viability in the presence of DH_17, DH_20, DH_23, DH_26, DH_28, DH_30, DH_31, or TM-(–)-18. H292 and H460 cells (1.0 × 10^4 cells per well) were seeded in 96-well plates. Following overnight incubation, the cells were treated with different concentrations of RT right–half analogs (0–100 μM) for 24 h at 37 °C. Subsequently, cell viability was assessed using MTT assay, following the manufacturers’ protocols. The optical density was measured at 570 nm using a CLARIOStar microplate reader (BMG Labtech, Ortenberg, Germany).

Test [3] deals with H460 cells. Kind of test: MTT cell viability assay (cytotoxicity). In kind it is cell-based, human. The settings on record: Homo sapiens, NCI-H460, 24 h, read-out: IC50 ± SD H460. On the procedure:
as §1, §2

Drawing on paper PMC11355573, “A New Renieramycin T Right-Half Analog as a Small Molecule Degrader of STAT3” (Marine Drugs, 2024), this text covers H460 cell motility and IC50 for five molecules.

With 22-O-(N-Boc-L-glycine) ester of RM, the H460 cell motility result in test [1] is recorded as “inhibited”.
Consider `COc1c(C)cc2c(c1O)[C@@H]1CN(Cc3ccccn3)[C@@H](C#N)[C@H](C2)N1C` [DH_17, (1R,4R,5S)-10-hydroxy-9-methoxy-8,11-dimethyl-3-(pyridin-2-ylmethyl)-1,2,3,4,5,6-hexahydro-1,5-epiminobenzo[d]azocine-4-carbonitrile], for which the results for the IC50 in test [2] and in test [3] were 20.5 ± 3.69 µM and more than 100 µM, respectively.
The like results for `COc1c(C)cc2c(c1O)[C@@H]1CN(Cc3cccnc3)[C@@H](C#N)[C@H](C2)N1C` [DH_20, (1R,4R,5S)-10-hydroxy-9-methoxy-8,11-dimethyl-3-(pyridin-3-ylmethyl)-1,2,3,4,5,6-hexahydro-1,5-epiminobenzo[d]azocine-4-carbonitrile] were, in that order, 21.5 ± 3.77 µM and more than 100 µM.
Taken in the same sequence, the figures for `COc1c(C)cc2c(c1O)[C@@H]1CN(Cc3ccncc3)[C@@H](C#N)[C@H](C2)N1C` [DH_23, (1R,4R,5S)-10-hydroxy-9-methoxy-8,11-dimethyl-3-(pyridin-4-ylmethyl)-1,2,3,4,5,6-hexahydro-1,5-epiminobenzo[d]azocine-4-carbonitrile] were 17.5 ± 3.08 µM and more than 100 µM.
Taken in the same sequence, the figures for `COc1c(C)cc2c(c1O)[C@@H]1CN(Cc3cncs3)[C@@H](C#N)[C@H](C2)N1C` [DH_26, (1R,4R,5S)-10-hydroxy-9-methoxy-8,11-dimethyl-3-(thiazol-5-ylmethyl)-1,2,3,4,5,6-hexahydro-1,5-epiminobenzo[d]azocine-4-carbonitrile] were 7.18 ± 2.39 µM and more than 100 µM.
